Laboratory results reported in patent publication US20250129370A1, “METHOD FOR REDUCING HEPATIC TRIGLYCERIDES” (ADAERATA, LIMITED PARTNERSHIP, priority 2022, published 2025).
*: point of attachment. Decanoyl = CCCCCCCCCC(=O)*; CH2Cl = ClC*

Molecular target: T1, PC7 (Homo sapiens, UniProt Q16549)
T1 construct: expressed in transfected cells; host or cells: naïve IHH cells
T1 sequence (Q16549 142-785): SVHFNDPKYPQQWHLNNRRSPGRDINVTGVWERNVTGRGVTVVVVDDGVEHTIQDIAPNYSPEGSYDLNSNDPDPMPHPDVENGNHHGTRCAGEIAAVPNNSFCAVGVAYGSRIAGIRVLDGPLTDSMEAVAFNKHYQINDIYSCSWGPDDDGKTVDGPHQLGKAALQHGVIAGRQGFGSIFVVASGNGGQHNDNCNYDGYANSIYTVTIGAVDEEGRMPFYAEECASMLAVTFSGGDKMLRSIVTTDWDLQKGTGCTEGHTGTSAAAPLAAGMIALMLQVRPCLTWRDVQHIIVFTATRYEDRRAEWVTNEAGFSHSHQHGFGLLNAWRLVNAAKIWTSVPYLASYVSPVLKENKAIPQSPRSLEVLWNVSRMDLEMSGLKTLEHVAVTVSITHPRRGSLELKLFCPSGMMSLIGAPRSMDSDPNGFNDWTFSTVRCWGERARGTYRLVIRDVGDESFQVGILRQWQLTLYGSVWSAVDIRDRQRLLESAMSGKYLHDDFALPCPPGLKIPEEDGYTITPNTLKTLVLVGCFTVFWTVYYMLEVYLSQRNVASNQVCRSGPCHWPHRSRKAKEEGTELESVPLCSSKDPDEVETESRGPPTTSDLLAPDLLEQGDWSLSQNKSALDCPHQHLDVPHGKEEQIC
Experiment: s-apoB secretion in IHH cells overexpressing PC7, with pan-proprotein convertase inhibitor
Format: cell-based
Conditions: naive IHH cells overexpressing PC7 and s-apoB
Method: FIGS. 7A-l: PCSK7 can bind apoB in the ER and acts as a molecular chaperone-like facilitating its secretion, and its absence leads to a rapid degradation of apoB by the proteasome. […] (FIG. 7A) Western blot (presented on gel and graphically) of apoB100 and PC7 protein levels in WT and PCSK7^−/− IHH cells. Levels are normalized to α-tubulin. (FIG. 7B) Western blot (presented on gel and graphically) of apoB100 and PC7 protein levels over time (0, 15 and 30 minutes) in WT and PCSK7^−/− IHH cells incubated with cycloheximide (CHX) to block de novo mRNA translation. Levels are normalized to α-tubulin. (FIG. 7C-D) Western blot (presented on gel and graphically) of cellular apoB levels in WT and PCSK7^−/− IHH cells incubated with brefeldin A (BFA) that blocks exit from the endoplasmic reticulum (ER), an autophagy inhibitor 3-methyladenine (3MA), proteasome inhibitors MG132, Lactacystin, DMSO or non treated (NT) controls. (FIG. 7E) Western blot (presented on gel) of cellular apoB levels and polyubiquitinated apoB100 in WT and PCSK7^−/− IHH cells incubated with Lactacystin. (FIG. 7F) Schematic representation of apoB100 and apoB21 protein. […]

**Q.** For Decanoyl-RVKR-CH2Cl, which “chaperone-like activity of PC7 on apoB (s-apoB secretion)” value is on record?
**A.** did not block
